For the test, the target named is T1, cloned human MC4R (Homo sapiens, UniProt P32245).
T1 construct: made in house; host or cells: Hi5 insect cells (baculovirus infection); membrane preparation
In words: Membrane binding assay: competitive inhibition of [125I]NDP-α-MSH binding. Particulars: for IC50: read-out: MC4R IC50; for inhibition at 10 µM: read-out: Displacement Rate (%) (at 10 μM).

[1] abbreviates: at 10 μM, [125I]NDP-α-MSH displacement.

Read-outs that look alike come from different tables or passages of the source.

T1 sequence (P32245 whole entry): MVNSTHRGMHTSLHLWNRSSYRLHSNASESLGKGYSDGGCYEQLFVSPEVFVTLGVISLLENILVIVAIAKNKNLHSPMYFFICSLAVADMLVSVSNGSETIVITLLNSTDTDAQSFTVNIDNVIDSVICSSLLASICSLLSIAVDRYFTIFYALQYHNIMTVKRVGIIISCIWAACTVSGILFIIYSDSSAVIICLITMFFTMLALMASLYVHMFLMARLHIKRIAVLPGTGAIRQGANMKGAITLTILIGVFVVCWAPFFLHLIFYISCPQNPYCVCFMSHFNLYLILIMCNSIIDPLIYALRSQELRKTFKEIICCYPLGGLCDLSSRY

`N[C@@H](Cc1ccc(OCc2c(F)c(F)c(F)c(F)c2F)cc1)C(=O)N1CCN(Cc2cccc(Cl)c2Cl)CC1` [Example 185]: the IC50 is less than 1500 nM. Further, the “Displacement Rate (%) (at 10 μM)” value under setting [1] is recorded as “+++ (+++ = 91-100)”. Consider `N[C@@H](Cc1ccc(OCc2ccccc2)cc1)C(=O)N1CCCN(Cc2ccnc3ccccc23)CC1` [Example 37], for which the IC50 was more than 3000 nM. Moreover, the inhibition at 10 µM under setting [1] was in the range of 71 to 90%. Taken in the same sequence, the figures for `CCc1ccc(CN2CCN(C(=O)[C@@H](N)Cc3ccc(OCc4ccccc4)cc3)CC2)s1` [Example 131] were more than 3000 nM and 35 to 70%. As for `N[C@@H](Cc1ccc(OCc2ccc(F)cc2F)cc1)C(=O)N1CCN(Cc2cccc(Cl)c2Cl)CC1` [Example 196], the IC50 was less than 1500 nM. The “Displacement Rate (%) (at 10 μM)” value under setting [1] was “+++ (+++ = 91-100)”.

Regarding `Cc1ccc(Oc2ccc(C[C@H](N)C(=O)N3CCN(Cc4cccc(Cl)c4Cl)CC3)cc2)cc1` [Example 345], the IC50 is less than 1500 nM. For `N[C@@H](Cc1ccc(OCCc2ccc([N+](=O)[O-])cc2)cc1)C(=O)N1CCN(Cc2cccc(Cl)c2Cl)CC1` [Example 258], the IC50 is more than 3000 nM. The “Displacement Rate (%) (at 10 μM)” value under setting [1] is recorded as “++ (++ = 71-90)”. Taken in the same sequence, the figures for `N[C@@H](Cc1ccc(OCc2ccccc2Cl)cc1)C(=O)N1CCN(Cc2cccc(Cl)c2Cl)CC1` [Example 210] were 1500 to 3000 nM and “+++ (+++ = 91-100)”. Taken in the same sequence, the figures for `COc1ccc(-c2ccc(C[C@H](N)C(=O)N3CCN(Cc4cccc(Cl)c4Cl)CC3)cc2)cc1OC` [Example 331] were more than 3000 nM and “+ (+ = 35-70)”. Taken in the same sequence, the figures for `COc1cc(COc2ccc(C[C@H](N)C(=O)N3CCN(Cc4cccc(Cl)c4Cl)CC3)cc2)cc(OC)c1` [Example 194] were 1500 to 3000 nM and “+++ (+++ = 91-100)”. In the case of `N[C@@H](Cc1ccc(OCc2ccccc2)cc1)C(=O)N1CCCN(Cc2cccc3ccccc23)CC1` [Example 47], the IC50 is more than 3000 nM. Moreover, under setting [1], the inhibition at 10 µM lay in the range of 35 to 70%.

As for `N[C@@H](Cc1ccc(OCc2ccccc2)cc1)C(=O)N1CCN(C2CCC(c3ccccc3)CC2)CC1` (some centres unmarked) [Example 118], the half-maximal inhibitory concentration (IC50) is more than 3000 nM. For the same compound, under setting [1], the inhibition at 10 µM fell in the range of 71 to 90%. Regarding `COc1ccc(CCOc2ccc(C[C@H](N)C(=O)N3CCN(Cc4cccc(Cl)c4Cl)CC3)cc2)cc1OC` [Example 259], the IC50 was more than 3000 nM. For the same compound, the “Displacement Rate (%) (at 10 μM)” value under setting [1] is given as “+ (+ = 35-70)”. Take `Cc1ccccc1-c1ccc(C[C@H](N)C(=O)N2CCN(Cc3cccc(Cl)c3Cl)CC2)cc1` [Example 313]: the IC50 was 1500 to 3000 nM. Also, the inhibition at 10 µM under setting [1] was in the range of 91 to 100%. For `COc1ccccc1COc1ccc(C[C@H](N)C(=O)N2CCN(Cc3cccc(Cl)c3Cl)CC2)cc1` [Example 231], the IC50 was more than 3000 nM. Besides, the “Displacement Rate (%) (at 10 μM)” value under setting [1] is “++ (++ = 71-90)”. Taken in the same sequence, the figures for `N[C@@H](Cc1ccc(OCc2ccccc2Br)cc1)C(=O)N1CCN(Cc2cccc(Cl)c2Cl)CC1` [Example 179] were less than 1500 nM and “+++ (+++ = 91-100)”. In the case of `CC(C)(C)c1cc(CN2CCCN(C(=O)[C@@H](N)Cc3ccc(OCc4ccccc4)cc3)CC2)cc(C(C)(C)C)c1O` [Example 26], the IC50 lay in the range of 1500 to 3000 nM. Under setting [1], the inhibition at 10 µM was 71 to 90%.

In the case of `N[C@@H](Cc1ccc(OCc2ccccc2)cc1)C(=O)N1CCCN(Cc2ccc(Cl)c([N+](=O)[O-])c2)CC1` [Example 64], the inhibition at 10 µM lay in the range of 35 to 70% and the IC50 is more than 3000 nM.

On to `N[C@@H](Cc1ccc(OCc2ccccc2)cc1)C(=O)N1CCN(Cc2cc3c(cc2Cl)OCO3)CC1` [Example 124], for which the inhibition at 10 µM lay within 71 to 90% and the IC50 was more than 3000 nM. As to `N[C@@H](Cc1ccc(OCc2ccccc2)cc1)C(=O)N1CCCN(Cc2ccc3ccccc3c2)CC1` [Example 51], the IC50 is more than 3000 nM. Moreover, under setting [1], the inhibition at 10 µM is 35 to 70%. Taken in the same sequence, the figures for `N[C@@H](Cc1ccc(OCc2ccccc2)cc1)C(=O)N1CCN(Cc2cc(F)ccc2F)CC1` [Example 145] were more than 3000 nM and 35 to 70%. Taken in the same sequence, the figures for `Cc1ccc(S(=O)(=O)n2cc(CN3CCN(C(=O)[C@@H](N)Cc4ccc(OCc5ccccc5)cc4)CC3)c3ccccc32)cc1` [Example 97] were less than 1500 nM and 91 to 100%. `N[C@@H](Cc1ccc(OCc2ccccc2)cc1)C(=O)N1CCCN(Cc2ccc(-c3ccccc3)cc2)CC1` [Example 8]: the IC50 fell in the range of 1500 to 3000 nM. For the same compound, the inhibition at 10 µM under setting [1] fell in the range of 91 to 100%. Taken in the same sequence, the figures for `N[C@@H](Cc1ccc(OCc2ccccc2)cc1)C(=O)N1CCCN(C2CCN(Cc3ccccc3)CC2)CC1` [Example 73] were more than 3000 nM and 35 to 70%.

Take `N[C@@H](Cc1ccc(OCc2ccccc2)cc1)C(=O)N1CCCN(Cc2ccc(-c3ccc(Cl)cc3)o2)CC1` [Example 6]: the IC50 is 1500 to 3000 nM. Moreover, under setting [1], the inhibition at 10 µM lay in the range of 91 to 100%. Taken in the same sequence, the figures for `O=C([C@H](Cc1ccc(OCc2ccccc2)cc1)NCCc1ccccc1)N1CCN(Cc2cccc(Cl)c2Cl)CC1` [Example 171] were more than 3000 nM and 71 to 90%. `N[C@@H](Cc1ccc(OCc2ccccc2)cc1)C(=O)N1CCN(Cc2cccc(Oc3cccc(C(F)(F)F)c3)c2)CC1` [Example 90]: the IC50 was less than 1500 nM. Besides, the inhibition at 10 µM under setting [1] lay in the range of 91 to 100%.

In the case of `COc1cccc(CCOc2ccc(C[C@H](N)C(=O)N3CCN(Cc4cccc(Cl)c4Cl)CC3)cc2)c1` [Example 243], the IC50 is less than 1500 nM. Besides, the inhibition at 10 µM under setting [1] was 91 to 100%.

For `N[C@@H](Cc1ccc(OCc2ccccc2)cc1)C(=O)N1CCN(Cc2cc3c(cc2[N+](=O)[O-])OCO3)CC1` [Example 154], the IC50 was more than 3000 nM. For the same compound, the inhibition at 10 µM under setting [1] lay within 35 to 70%. Taken in the same sequence, the figures for `N[C@@H](Cc1ccc(OCc2ccccc2)cc1)C(=O)N1CCN(Cc2ccccc2Sc2ccc(Cl)cc2)CC1` [Example 82] were less than 1500 nM and 91 to 100%. For the compound `N[C@@H](Cc1ccc(OCc2cccc(C(F)(F)F)c2)cc1)C(=O)N1CCN(Cc2cccc(Cl)c2Cl)CC1` [Example 187], the IC50 was in the range of 1500 to 3000 nM. Further, the “Displacement Rate (%) (at 10 μM)” value under setting [1] is recorded as “+++ (+++ = 91-100)”. `CCCCCOc1ccc(CN2CCN(C(=O)[C@@H](N)Cc3ccc(OCc4ccccc4)cc3)CC2)cc1` [Example 99]: the IC50 was less than 1500 nM. For the same compound, under setting [1], the inhibition at 10 µM is 91 to 100%. Consider `N[C@@H](Cc1ccc(-c2cccc3c2oc2ccccc23)cc1)C(=O)N1CCN(Cc2cccc(Cl)c2Cl)CC1` [Example 336], for which the inhibition at 10 µM was 91 to 100% and the IC50 was less than 1500 nM. Regarding `CCOc1cccc(-c2ccc(C[C@H](N)C(=O)N3CCN(Cc4cccc(Cl)c4Cl)CC3)cc2)c1` [Example 308], the IC50 was less than 1500 nM. Further, the inhibition at 10 µM under setting [1] is 91 to 100%. Taken in the same sequence, the figures for `N[C@@H](Cc1ccc(OCc2ccccc2)cc1)C(=O)N1CCN(C2CCCC2)CC1` [Example 158] were more than 3000 nM and 35 to 70%. Turning to `COc1ccc(-c2ccc(C[C@H](N)C(=O)N3CCN(Cc4cccc(Cl)c4Cl)CC3)cc2)cn1` [Example 343], the inhibition at 10 µM is 35 to 70% and the IC50 was more than 3000 nM. Turning to `N[C@@H](Cc1ccc(OCc2ccccc2)cc1)C(=O)N1CCCN(Cc2cnc3ccccc3c2)CC1` [Example 62], the IC50 was more than 3000 nM. Also, the inhibition at 10 µM under setting [1] was 35 to 70%. In the case of `N[C@@H](Cc1ccc(OCc2cccc(Br)c2)cc1)C(=O)N1CCN(Cc2cccc(Cl)c2Cl)CC1` [Example 197], the IC50 is less than 1500 nM. Besides, the “Displacement Rate (%) (at 10 μM)” value under setting [1] was “+++ (+++ = 91-100)”. Take `N[C@@H](Cc1ccc(-c2ccc3ccccc3c2)cc1)C(=O)N1CCN(Cc2cccc(Cl)c2Cl)CC1` [Example 293]: the IC50 was less than 1500 nM. Further, the inhibition at 10 µM under setting [1] fell in the range of 91 to 100%.

Take `Cc1ccc(COc2ccc(C[C@H](N)C(=O)N3CCN(Cc4cccc(Cl)c4Cl)CC3)cc2)cc1` [Example 192]: the concentration for half-maximal inhibition (IC50) was less than 1500 nM. The “Displacement Rate (%) (at 10 μM)” value under setting [1] was “+++ (+++ = 91-100)”. Taken in the same sequence, the figures for `N[C@@H](Cc1ccc(OCc2cc(C(F)(F)F)cc(C(F)(F)F)c2)cc1)C(=O)N1CCN(Cc2cccc(Cl)c2Cl)CC1` [Example 199] were 1500 to 3000 nM and “+++ (+++ = 91-100)”. With `N[C@@H](Cc1ccc(OCc2ccc(OCc3ccccc3)cc2)cc1)C(=O)N1CCN(Cc2cccc(Cl)c2Cl)CC1` [Example 208], the IC50 fell in the range of 1500 to 3000 nM. Moreover, the “Displacement Rate (%) (at 10 μM)” value under setting [1] is listed as “+++ (+++ = 91-100)”. Taken in the same sequence, the figures for `N[C@@H](Cc1ccc(OCCc2cccc(OCc3ccccc3)c2)cc1)C(=O)N1CCN(Cc2cccc(Cl)c2Cl)CC1` [Example 250] were less than 1500 nM and “+++ (+++ = 91-100)”. Taken in the same sequence, the figures for `N[C@@H](Cc1ccc(OCc2ccc(Cl)c([N+](=O)[O-])c2)cc1)C(=O)N1CCN(Cc2cccc(Cl)c2Cl)CC1` [Example 219] were less than 1500 nM and “+++ (+++ = 91-100)”. With `N[C@@H](Cc1ccc(OCc2ccccc2)cc1)C(=O)N1CCCN(Cc2ccc(C(c3ccccc3)c3ccccc3)cc2)CC1` [Example 1], the IC50 was less than 1500 nM. In addition, the inhibition at 10 µM under setting [1] is 91 to 100%. Consider `N[C@@H](Cc1ccc(-c2ccccc2C(F)(F)F)cc1)C(=O)N1CCN(Cc2cccc(Cl)c2Cl)CC1` [Example 315], for which the 50% inhibitory concentration (IC50) is 1500 to 3000 nM. Moreover, the inhibition at 10 µM under setting [1] lay in the range of 91 to 100%. Regarding `CC(C)N[C@@H](Cc1ccc(OCc2ccccc2)cc1)C(=O)N1CCN(Cc2cccc(Cl)c2Cl)CC1` [Example 168], the IC50 is less than 1500 nM. In addition, under setting [1], the inhibition at 10 µM was in the range of 71 to 90%. As to `N[C@@H](Cc1ccc(OCCc2ccc3ccccc3c2)cc1)C(=O)N1CCN(Cc2cccc(Cl)c2Cl)CC1` [Example 256], the IC50 was less than 1500 nM. Further, the “Displacement Rate (%) (at 10 μM)” value under setting [1] was “+++ (+++ = 91-100)”. `N[C@@H](Cc1ccc(OCc2ccccc2)cc1)C(=O)N1CCN(CC2CCCCC2)CC1` [Example 113]: the IC50 was less than 1500 nM. Moreover, under setting [1], the inhibition at 10 µM was 71 to 90%.

The values above are taken from patent publication US6916812B2, “Alpha-aminoamide derivatives as melanocortin agonists” (Bristol-Myers Squibb Company, priority 2001, dated 2005).
